Here are results for twelve compounds from publication PMC10413337 (RSC Advances, 2023).

Each structure is given as a SMILES string.

The test system of one data set is colon carcinoma Caco2. As to the kind of experiment: MTT cytotoxicity evaluation, Caco2. In kind it is cell-based. To be noted: Homo sapiens, Caco-2, read-out: IC50 (μM ± SD) Caco2.
For the next data set, the system named is breast MCF-7. As to the kind of experiment: MTT cytotoxicity evaluation, MCF-7. To be noted: for IC50: Homo sapiens, MCF7, read-out: IC50 (μM ± SD) MCF-7.
Data set [1] concerns normal lung fibroblast WI-38. Description: MTT cytotoxicity evaluation, normal WI-38. In kind it is cell-based. To be noted: Homo sapiens, WI-38, read-out: IC50 (μM ± SD) WI-38.
The test system of another data set is hepatic carcinoma HepG-2. As to the kind of experiment: MTT cytotoxicity evaluation, HepG-2. To be noted: Homo sapiens, HepG2, read-out: IC50 (μM ± SD) HepG-2. In kind it is cell-based.
A further data set concerns HepG-2, Caco2, and MCF-7. Description: MTT cytotoxicity, statements over the three cancer cell lines. In kind it is cell-based, human. To be noted: 9c versus 3.

On to `CC(=NNc1nc(-c2ccccc2)cs1)c1nn(-c2ccc(S(N)(=O)=O)cc2)c(=N)s1` [Compound 4, 4-(2-Imino-5-(1-(2-(4-phenylthiazol-2-yl)hydrazineylidene)ethyl)-1,3,4-thiadiazol-3(2H)yl)benzenesulfonamide], for which the concentration for half-maximal inhibition (IC50) came to 3.19 ± 0.2 µM in the data set on colon carcinoma Caco2, 3.52 ± 0.2 µM in the data set with breast MCF-7, 21.4 ± 1.1 µM in data set [1] and 0.5 ± 0.04 µM with hepatic carcinoma HepG-2.

On to `CNC(=S)NN=C(C)c1nn(-c2ccc(S(N)(=O)=O)cc2)c(=N)s1` [Compound 9a, 2-(1-(5-Imino-4-(4-sulfamoylphenyl)-4,5-dihydro-1,3,4-thiadiazol-2-yl)ethylidene)-N-methylhydrazine-1-carbothioamide], for which the concentration for half-maximal inhibition (IC50) came to 1.01 ± 0.1 µM with colon carcinoma Caco2, 1.12 ± 0.1 µM in the data set on breast MCF-7, 18.4 ± 1.7 µM in data set [1] and 0.53 ± 0.01 µM in the data set with hepatic carcinoma HepG-2.

Regarding `CC(=NNC(=S)Nc1ccccc1)c1nn(-c2ccc(S(N)(=O)=O)cc2)c(=N)s1` [Compound 9c, 2-(1-(5-imino-4-(4-sulfamoylphenyl)-4,5-di-hydro-1,3,4-thiadiazol-2-yl)ethylidene)-N-phenylhydrazine-1-carbothioamide], the 50% inhibitory concentration (IC50) was 34.7 ± 1.7 µM in the data set with colon carcinoma Caco2, 21.1 ± 0.9 µM in the data set on breast MCF-7, 28.5 ± 1.5 µM in data set [1] and 37.1 ± 2.1 µM in the data set on hepatic carcinoma HepG-2. Also, the “drop in cytotoxicity, times” value in the data set on HepG-2, Caco2, and MCF-7 is listed as 10 times.

For `CC(=NNC(N)=S)c1nn(-c2ccc(S(N)(=O)=O)cc2)c(=N)s1` [Compound 3, 2-(1-(5-imino-4-(4-sulfamoylphenyl)-4,5-dihydro-1,3,4-thiadiazol-2-yl)ethylidene)hydrazine-1-carbothioamide], the half-inhibitory concentration (IC50) in the data set on colon carcinoma Caco2 came to 14.9 ± 0.7 µM; with breast MCF-7, 6.38 ± 0.3 µM; in data set [1], 44.4 ± 2.3 µM; in the data set with hepatic carcinoma HepG-2 it was 4.57 ± 0.3 µM. For the same compound, in the data set with breast MCF-7 (thiosemicarbazone 3 versus acetyl derivative 1, MCF-7), the “improvement of the cytotoxic effect, times” value is listed as 2.5 times.

Turning to `C=CCNC(=S)NN=C(C)c1nn(-c2ccc(S(N)(=O)=O)cc2)c(=N)s1` [Compound 9b, N-Allyl-2-(1-(5-imino-4-(4-sulfamoylphenyl)-4,5-di-hydro-1,3,4-thiadiazol-2-yl)ethylidene)hydrazine-1-carbothioamide], the 50% inhibitory concentration (IC50) worked out at 74.8 ± 3.7 µM in the data set on colon carcinoma Caco2, 73 ± 3.3 µM with breast MCF-7, 92.9 ± 4.8 µM in data set [1] and 149 ± 8.4 µM in the data set on hepatic carcinoma HepG-2.

On to `CC(=O)c1sc(NN=C(C)c2nn(-c3ccc(S(N)(=O)=O)cc3)c(=N)s2)nc1C` [Compound 6, 4-(5-(1-(2-(5-Acetyl-4-methylthiazol-2-yl)hydrazineylidene)ethyl)-2-imino-1,3,4-thiadiazol-3(2H)-yl)benzenesulfonamide], for which the concentration for half-maximal inhibition (IC50) with colon carcinoma Caco2 came out at 33.8 ± 1.7 µM; in the data set on breast MCF-7 it was 21.2 ± 1.2 µM; in data set [1] it was 110 ± 5.7 µM; with hepatic carcinoma HepG-2, 32.9 ± 1.9 µM.

With `CCOC(=O)c1sc(NN=C(C)c2nn(-c3ccc(S(N)(=O)=O)cc3)c(=N)s2)nc1C` [Compound 7, Ethyl-2-(2-(1-(5-imino-4-(4-sulfamoylphenyl)-4,5-dihydro-1,3,4-thiadiazol-2-yl)ethylidene)hydrazineyl)-4-methylthiazole-5-carboxylate], the IC50 in the data set with colon carcinoma Caco2 was 7.39 ± 0.4 µM; in the data set with breast MCF-7, 12.6 ± 0.6 µM; in data set [1] it was 42.9 ± 2.2 µM; in the data set with hepatic carcinoma HepG-2, 19.6 ± 1.1 µM.

As to `CC(=O)c1nn(-c2ccc(S(N)(=O)=O)cc2)c(=N)s1` [Compound 1, 5-acetyl-3-N-(4-sulfamoylphenyl)-2-imino-1,3,4-thiadiazoline], the half-maximal inhibitory concentration (IC50) worked out at 11.1 ± 0.6 µM in the data set with colon carcinoma Caco2, 14.9 ± 0.7 µM with breast MCF-7, 91.5 ± 4.7 µM in data set [1] and 59.6 ± 3.4 µM with hepatic carcinoma HepG-2.

Consider `CC(=NN=c1scc(-c2ccccc2)n1-c1ccc(Cl)cc1)c1nn(-c2ccc(S(N)(=O)=O)cc2)c(=N)s1` [Compound 12d, 4-(5-(1-((3-(4-Chlorophenyl)-4-phenylthiazol-2(3H)-ylidene)hydrazono)ethyl)-2-imino-1,3,4-thiadiazol-3(2H)-yl)benzenesulfonamide], for which the half-inhibitory concentration (IC50) in the data set on colon carcinoma Caco2 came to 1.06 ± 0.1 µM; in the data set with breast MCF-7 it was 3.79 ± 0.2 µM; in data set [1], 46.6 ± 2.4 µM; with hepatic carcinoma HepG-2, 4.26 ± 0.2 µM.

Consider `C=CCn1c(-c2ccccc2)csc1=NN=C(C)c1nn(-c2ccc(S(N)(=O)=O)cc2)c(=N)s1` [Compound 12b, 4-(5-(1-((3-Allyl-4-phenylthiazol-2(3H)-ylidene)hydrazono)ethyl)-2-imino-1,3,4-thiadiazol-3(2H)-yl)benzenesulfonamide], for which the IC50 in the data set on colon carcinoma Caco2 worked out at 25.5 ± 1.3 µM; in the data set on breast MCF-7 it was 15.1 ± 0.7 µM; in data set [1], 63.5 ± 3.9 µM; in the data set on hepatic carcinoma HepG-2 it was 17.5 ± 1.5 µM.

As for `CC(=NNC(=S)Nc1ccc(Cl)cc1)c1nn(-c2ccc(S(N)(=O)=O)cc2)c(=N)s1` [Compound 9d, N-(4-Chlorophenyl)-2-(1-(5-imino-4-(4-sulfamoylphenyl)-4,5-dihydro-1,3,4-thiadiazol-2-yl)-ethylidene)hydrazine-1-carbothioamide], the IC50 with colon carcinoma Caco2 was 98.7 ± 4.9 µM; in the data set with breast MCF-7, 42.6 ± 1.8 µM; in data set [1] it was 60.7 ± 3.1 µM; in the data set on hepatic carcinoma HepG-2, 153 ± 8.6 µM.

In the case of `CC(=NNC1=NC(=O)CS1)c1nn(-c2ccc(S(N)(=O)=O)cc2)c(=N)s1` [Compound 8, 4-(2-Imino-5-(1-(2-(4-oxo-4,5-dihydrothiazol-2-yl)hydrazineylidene)ethyl)-1,3,4-thiadiazol-3(2H)-yl)benzenesulfonamide], the IC50 with colon carcinoma Caco2 amounted to 5.31 ± 0.3 µM; with breast MCF-7 it was 27.2 ± 1.2 µM; in data set [1] it was 22.9 ± 1.2 µM; in the data set on hepatic carcinoma HepG-2, 11.3 ± 0.6 µM.

As a reminder, the IC50 is the midpoint of a concentration-inhibition curve.
